Assay results from patent publication US20220298145A1, “BRAF INHIBITORS AS PARADOX BREAKERS” (Hoffmann-La Roche Inc., priority 2019, published 2022).
Like-named read-outs stand apart in the source and are kept apart here.

How the values were obtained:
BRAF = BRAF (Homo sapiens, UniProt P15056); assay: Kd for RAF kinases: BRAF; format: binding
[1] = test system: ERK 1,2 phosphorylation in A375 cells expressing V600E mutated BRAF; assay: HTRF assay for P-ERK determination in A375 cells (BRAF inhibition); format: cell-based; settings: Homo sapiens, A-375, 1 h, read-out: pERK IC50 A375
Source text: (§1) DMEM no-phenol red medium supplemented with L-glutamine was purchased from (Thermo Fisher Scientific). Fetal bovine serum (FBS) was purchased from VWR. Advanced ERK phospho-T202/Y204 kit-10,000 tests was purchased from Cisbio cat #64AERPEH. A375 and HCT116 cells were originally obtained from ATCC and banked by the Roche repository.
A375 is a cellular cancer model expressing V600E mutated BRAF and HCT116 a cellular cancer model expressing WT BRAF. […] ERK 1,2 phosphorylation (terminal member of the phosphorylation cascade of the MAPK pathway) is hereafter reported as main readout for the activation status of the MAPK pathway. Prior to the assay, A375 and HCT116 cell lines are maintained in DMEM no-phenol red medium supplemented with 10% fetal bovine serum (FBS). […] Briefly, 8000 cells/well in 12 μl media/well are plated in the 384-well plate and left overnight in the incubator (at 37° C. with 5% CO2-humidified atmosphere), the following day the plate is treated in duplicate with test compounds, dabrafenib and PLX8394 (the latter two as controls) at the following final drug concentrations: 10 μM-3 μM-1 μM-0.3 μM-0.1 μM-0.03 μM-0.01 μM-0.003 μM-0.001 μM, all wells are subjected to DMSO normalization and drug incubation occurs for 1 hour. Then, 4 μl of a 4× lysis buffer supplied with the kit are added to the wells, the plate is then centrifuged for 30 second (300 rcf) and incubated on a plate shaker for 1 h at RT.
(§2) At the end of the incubation 4 μL/well of advanced P-ERK antibody solution (prepared according to manufacturer's instruction) followed by 4 μL/well of criptate P-ERK antibody solution (prepared according to manufacturer's instruction) (Cisbio cat #64AERPEH) are added to test wells.
(§3) In order to allow proper data normalization control wells non drug treated reported in the following table are always included in each plate (according to manufacturer's instruction):
(§4) The plate is then centrifuged at 300 rcf for 30 second, sealed to prevent evaporation and incubated overnight in the dark at room temperature.
(§5) The obtained fluorescence values are processed according to the formula Ratio=Signal (620 nm)/Signal (625 nm)*10000 then the average of the ratio on the blank is subtracted to all values.
Data are normalized in the case of A375 cells (BRAF inhibition) considering the average of the ratio (blank subtracted) derived by DMSO only treated cells as 100% and by considering the average of the ratio (blank subtracted) derived by 10 uM dabrafenib treated cells as 0%. Mean of the normalized points are fitted with sigmoidal curve and IC50 determined.

BRAF (V600E) = BRAF (V600E) (Homo sapiens, UniProt P15056, V600E); assay: Kd for RAF kinases: BRAF (V600E); format: binding
Sequence of BRAF (V600E) (P15056 whole entry V600E): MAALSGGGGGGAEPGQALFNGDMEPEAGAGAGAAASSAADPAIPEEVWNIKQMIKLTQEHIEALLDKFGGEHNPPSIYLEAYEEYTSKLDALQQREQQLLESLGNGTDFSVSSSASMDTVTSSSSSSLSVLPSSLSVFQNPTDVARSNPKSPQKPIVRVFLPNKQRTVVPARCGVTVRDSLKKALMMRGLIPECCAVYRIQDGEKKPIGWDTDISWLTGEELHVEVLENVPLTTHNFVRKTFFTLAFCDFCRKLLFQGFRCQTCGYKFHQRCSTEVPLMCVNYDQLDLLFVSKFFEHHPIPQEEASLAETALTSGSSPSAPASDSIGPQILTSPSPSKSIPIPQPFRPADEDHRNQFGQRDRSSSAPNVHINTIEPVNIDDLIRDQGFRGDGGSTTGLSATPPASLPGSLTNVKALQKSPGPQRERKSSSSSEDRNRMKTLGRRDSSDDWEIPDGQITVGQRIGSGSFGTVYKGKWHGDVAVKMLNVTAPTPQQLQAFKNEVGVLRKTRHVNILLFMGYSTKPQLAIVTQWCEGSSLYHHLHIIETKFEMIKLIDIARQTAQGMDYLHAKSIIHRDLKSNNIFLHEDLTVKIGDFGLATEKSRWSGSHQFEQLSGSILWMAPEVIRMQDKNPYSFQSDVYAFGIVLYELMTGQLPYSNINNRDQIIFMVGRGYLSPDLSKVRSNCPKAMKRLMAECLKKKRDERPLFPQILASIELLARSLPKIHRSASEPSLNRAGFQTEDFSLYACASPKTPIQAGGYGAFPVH

[2] = test system: ERK 1,2 phosphorylation in HCT116 cells expressing WT BRAF; assay: HTRF assay for P-ERK determination in HCT116 cells (paradoxical BRAF activation); format: cell-based; settings: for Emax: Homo sapiens, HCT-116, read-out: Percentage of maximum paradox inducing effect from dabrafenib; for EC50: read-out: P-ERK EC50 conc. at which the compound induces p-ERK activation of 50% of that induced by dabrafenib (Positive control paradox inducer) HCT-116, HCT-116 cells, 1 hour drug incubation, not applicable = activation does not reach 50% of dabrafenib maximum
Source text: as §1, with “repository. 384-well microplates were purchased from Greiner Bio-One, 384-well, (With Lid, HiBase, Low volume cat 784-080).” for “repository.”
A375 is a cellular cancer model expressing V600E mutated BRAF and HCT116 a cellular cancer model expressing WT BRAF. First generation BRAF inhibitors such as e.g. dabrafenib induce a paradox effect on tumour cells in that they inhibit the growth of V600E mutated BRAF cells (such as e.g. A375), while they activate growth in WT BRAF cells (such as e.g. HCT 116). ERK 1,2 phosphorylation (terminal member of the phosphorylation cascade of the MAPK pathway) is hereafter reported as main readout for the activation status of the MAPK pathway. Prior to the assay, A375 and HCT116 cell lines are maintained in DMEM no-phenol red medium supplemented with 10% fetal bovine serum (FBS). Following compound treatment, P-ERK levels are determined by measuring FRET fluorescence signal induced by selective binding of 2 antibodies provided in the mentioned kit (Cisbio cat #64AERPEH) on ERK protein when phosphorylated at Thr202/Tyr204. Briefly, 8000 cells/well in 12 μl media/well are plated in the 384-well plate and left overnight in the incubator (at 37° C. with 5% CO2-humidified atmosphere), the following day the plate is treated in duplicate with test compounds, dabrafenib and PLX8394 (the latter two as controls) at the following final drug concentrations: 10 μM-3 μM-1 μM-0.3 μM-0.1 μM-0.03 μM-0.01 μM-0.003 μM-0.001 μM, all wells are subjected to DMSO normalization and drug incubation occurs for 1 hour. Then, 4 μl of a 4× lysis buffer supplied with the kit are added to the wells, the plate is then centrifuged for 30 second (300 rcf) and incubated on a plate shaker for 1 h at RT.
as §2, §3, §4
The plate is then analyzed and fluorescence emission value collected through a Pherastast FSX (BMG Labtech) apparatus at […].
as §5
Data are normalized in the case of HCT116 cells (BRAF activation) considering the average of the ratio (blank subtracted) derived by DMSO only treated cells as 0% and by considering the average of the ratio (blank subtracted) derived by dabrafenib treated cells at the concentration which provides the highest signal as 100%. Individual points are fitted with either sigmoidal or bell shape curves, and the percentage of activation compared to maximum dabrafenib-mediated activation is determined. The EC50 is the concentration at which activation equal to 50% of the maximum achieved by dabrafenib is obtained.
The Percentage of Maximum paradox inducing effect from dabrafenib is determined by evaluating the percentage at which the test compound induce its maximum P-ERK signal as percentage of the highest signal produced by dabrafenib within the dose range tested.

CRAF = CRAF (Homo sapiens, UniProt P04049); assay: Kd for RAF kinases: CRAF; format: binding
Sequence of CRAF (P04049 whole entry): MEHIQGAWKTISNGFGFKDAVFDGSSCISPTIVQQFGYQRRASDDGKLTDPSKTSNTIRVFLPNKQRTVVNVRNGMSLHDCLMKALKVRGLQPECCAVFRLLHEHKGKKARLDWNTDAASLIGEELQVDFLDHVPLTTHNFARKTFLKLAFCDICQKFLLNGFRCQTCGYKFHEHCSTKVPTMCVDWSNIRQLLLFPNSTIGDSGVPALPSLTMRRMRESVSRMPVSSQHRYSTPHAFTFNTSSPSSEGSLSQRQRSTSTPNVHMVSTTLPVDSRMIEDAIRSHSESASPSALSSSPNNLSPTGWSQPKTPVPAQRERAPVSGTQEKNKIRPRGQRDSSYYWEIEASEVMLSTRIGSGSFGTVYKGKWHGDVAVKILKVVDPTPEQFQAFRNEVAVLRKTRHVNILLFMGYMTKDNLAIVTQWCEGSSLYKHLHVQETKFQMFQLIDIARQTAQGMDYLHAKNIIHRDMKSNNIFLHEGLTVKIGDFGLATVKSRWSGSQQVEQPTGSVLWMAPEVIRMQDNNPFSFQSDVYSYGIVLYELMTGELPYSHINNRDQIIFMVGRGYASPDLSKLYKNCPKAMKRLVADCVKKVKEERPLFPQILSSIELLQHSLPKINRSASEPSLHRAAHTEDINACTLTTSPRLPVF

Sequence of BRAF (P15056 whole entry): as the sequence (P15056 whole entry V600E) above, with E600V counted along it

SMILES | Kd (BRAF; read-out: Kd BRAF) | IC50 [1] | Kd (BRAF (V600E); read-out: Kd BRAF (V600E)) | Emax [2] | EC50 [2] | Kd (CRAF) | Kd (BRAF) | Kd (BRAF (V600E))
CCN(C)S(=O)(=O)Nc1cccc(Nc2ccc3ncn(C)c(=O)c3c2)c1C#N [Example 11, 6-[2-cyano-3-[[ethyl(methyl)sulfamoyl]amino]anilino]-3-methyl-4-oxo-quinazoline] | 11.6 nM | 19.7 nM | 26.5 nM | 61% | > 1000 nM | 52.3 nM | – | –
Cn1cnc2ccc(Oc3cccc(NS(=O)(=O)C4CCCCC4)c3C#N)cc2c1=O [Example 9, N-[2-cyano-3-(3-methyl-4-oxo-quinazolin-6-yl)oxy-phenyl]cyclohexanesulfonamide] | 2.4 nM | 13.9 nM | 4 nM | 44% | – | 0.8 nM | – | –
CCN(C)S(=O)(=O)Nc1ccc(Cl)c(Nc2ccc3ncn(C)c(=O)c3c2)c1C#N [Example 13, 6-[6-chloro-2-cyano-3-[[ethyl(methyl)sulfamoyl]amino]anilino]-3-methyl-4-oxo-quinazoline] | – | 14.8 nM | – | 67% | > 1000 nM | 6.8 nM | 4.3 nM | 10 nM
CCN(C)S(=O)(=O)Nc1ccc(F)c(Oc2ccc3ncn(C)c(=O)c3c2)c1C#N [Example 1, 6-[2-cyano-3-[[ethyl(methyl)sulfamoyl]amino]-6-fluoro-phenoxy]-3-methyl-4-oxo-quinazoline] | 1.6 nM | 5.5 nM | 3.4 nM | 56% | > 1000 nM | 6.3 nM | – | –
Cn1cnc2ccc(Oc3c(Cl)ccc(NS(=O)(=O)N4CC[C@@H](F)C4)c3C#N)cc2c1=O [Example 3, (3R)—N-[4-chloro-2-cyano-3-(3-methyl-4-oxo-quinazolin-6-yl)oxy-phenyl]-3-fluoro-pyrrolidine-1-sulfonamide] | – | 14.8 nM | – | 61% | > 1000 nM | 9.4 nM | 10 nM | 6.3 nM
Cn1cnc2ccc(Nc3c(Cl)ccc(NS(=O)(=O)N4CCCC4)c3C#N)cc2c1=O [Example 14, N-[4-chloro-2-cyano-3-[(3-methyl-4-oxo-quinazolin-6-yl)amino]phenyl]pyrrolidine-1-sulfonamide] | 1.4 nM | 13.7 nM | 0.7 nM | 74% | 204 nM | 1.5 nM | – | –
Cn1cnc2ccc(Oc3cccc(NS(=O)(=O)N4CCCC4)c3C#N)cc2c1=O [Example 6, N-[2-cyano-3-(3-methyl-4-oxo-quinazolin-6-yl)oxy-phenyl]pyrrolidine-1-sulfonamide] | – | 17.1 nM | – | 59% | 648 nM | 1.1 nM | 1.6 nM | 2.6 nM
Cn1cnc2ccc(Oc3c(F)ccc(NS(=O)(=O)C4CCCC4)c3C#N)cc2c1=O [Example 16, N-[2-cyano-4-fluoro-3-(3-methyl-4-oxo-quinazolin-6-yl)oxy-phenyl]cyclopentanesulfonamide] | – | 2.3 nM | – | 70% | 152 nM | 0.7 nM | 1 nM | 1.9 nM
CCN(C)S(=O)(=O)Nc1ccc(Cl)c(Oc2ccc3ncn(C)c(=O)c3c2)c1C#N [Example 2, 6-[6-chloro-2-cyano-3-[[ethyl(methyl)sulfamoyl]amino]phenoxy]-3-methyl-4-oxo-quinazoline] | – | 28.6 nM | – | 69% | > 1000 nM | 5.4 nM | 30.4 nM | 36.8 nM
Cn1cnc2ccc(Oc3c(Cl)ccc(NS(=O)(=O)N4CCCC4)c3C#N)cc2c1=O [Example 4, N-[4-chloro-2-cyano-3-(3-methyl-4-oxo-quinazolin-6-yl)oxy-phenyl]pyrrolidine-1-sulfonamide] | – | 34.3 nM | – | 65% | 714 nM | 1.6 nM | 2.1 nM | 4.6 nM
CCN(C)S(=O)(=O)Nc1cccc(Oc2ccc3ncn(C)c(=O)c3c2)c1C#N [Example 5, 6-[2-cyano-3-[[ethyl(methyl)sulfamoyl]amino]phenoxy]-3-methyl-4-oxo-quinazoline] | – | 52.5 nM | – | 61% | > 1000 nM | 7.2 nM | 10.6 nM | 32.3 nM
CN(C)S(=O)(=O)Nc1ccc(F)c(Oc2ccc3ncn(C)c(=O)c3c2)c1C#N [Example 17, 6-[2-cyano-3-(dimethylsulfamoylamino)-6-fluoro-phenoxy]-3-methyl-4-oxo-quinazoline] | – | 2.6 nM | – | 71% | 970 nM | 3 nM | 1.7 nM | 4.3 nM
Cn1cnc2ccc(Oc3c(F)ccc(NS(=O)(=O)N4CCCC4)c3C#N)cc2c1=O [Example 15, N-[2-cyano-4-fluoro-3-(3-methyl-4-oxo-quinazolin-6-yl)oxy-phenyl]pyrrolidine-1-sulfonamide] | 0.4 nM | 1.6 nM | 0.9 nM | 63% | 172 nM | 0.8 nM | – | –
Cn1cnc2ccc(Nc3cccc(NS(=O)(=O)N4CC[C@@H](F)C4)c3C#N)cc2c1=O [Example 12, (3R)—N-[2-cyano-3-[(3-methyl-4-oxo-quinazolin-6-yl)amino]phenyl]-3-fluoro-pyrrolidine-1-sulfonamide] | – | 9.2 nM | – | 49% | – | 9.8 nM | 2 nM | 7.5 nM
Cn1cnc2ccc(Oc3cccc(NS(=O)(=O)N4CC[C@@H](F)C4)c3C#N)cc2c1=O [Example 7, (3R)—N-[2-cyano-3-(3-methyl-4-oxo-quinazolin-6-yl)oxy-phenyl]-3-fluoro-pyrrolidine-1-sulfonamide] | – | 26.2 nM | – | 32% | – | 8.9 nM | 8.9 nM | 4.5 nM
